Measured values taken from ChEMBL document CHEMBL1201862, “PubChem BioAssay data set” (2004).
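Values below derive from 48-hour exposures of cells grown in 96-well plates, with endpoints linearly interpolated between the two concentrations bracketing the appropriate inhibition level. Abbreviation: GI50, concentration required for 50% inhibition of growth.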 The source made the active and inactive calls. Cut-off read from the data, not from the text of the source: active = GI50 up to about 1.1 µM and inactive = higher.

Assays:
Assay in all cases: NCI tumour cell line growth inhibition, 48 h
[1] = test system: PC-3
[2] = test system: RXF 393
[3] = test system: HT-29
[4] = test system: UACC-257
[5] = test system: BT-549
[6] = test system: MCF7
[7] = test system: HCT-116
[8] = test system: NCI-H23
[9] = test system: OVCAR-8
[10] = test system: SW-620
[11] = test system: HOP-62
[12] = test system: NCI-H522
[13] = test system: OVCAR-4
[14] = test system: SK-OV-3
[15] = test system: SF-295
[16] = test system: HOP-92
[17] = test system: SK-MEL-28
[18] = test system: SK-MEL-5
[19] = test system: UACC-62
[20] = test system: RPMI-8226

Measured: GI50

CC1(C)C2CCC1(C)C(NC(=O)COCCOCC(N)=O)C2 (stereo not given)
inactive: [1] > 100 µM | [2] 63.7 µM | [3] > 100 µM | [4] > 100 µM | [5] > 100 µM | [6] > 100 µM | [7] > 100 µM | [8] > 100 µM | [9] > 100 µM | [10] > 100 µM | [11] > 100 µM | [12] > 100 µM | [13] > 100 µM | [14] > 100 µM | [15] > 100 µM | [16] > 100 µM | [17] > 100 µM | [18] > 100 µM | [19] > 100 µM

O=C(O)/C(Cc1c[nH]nn1)=N\O
inactive: [1] > 100 µM | [2] > 100 µM | [3] > 100 µM | [20] > 100 µM | [4] > 100 µM | [5] > 100 µM | [6] > 100 µM | [7] > 100 µM | [8] > 100 µM | [9] > 100 µM | [10] > 100 µM | [11] > 100 µM | [12] > 100 µM | [13] > 100 µM | [14] > 100 µM | [15] > 100 µM | [16] > 100 µM | [17] > 100 µM | [18] > 100 µM | [19] > 100 µM

COc1cc(/C=C/C(=O)OC2C(O)C3CC(OC(=O)c4cc(OC)c(OC)c(OC)c4)CC2N3C)cc(OC)c1OC (stereo not given)
inactive: [1] 35.6 µM | [2] 15.9 µM | [3] 14.2 µM | [20] 33 µM | [4] > 50 µM | [5] > 50 µM | [6] 23 µM | [7] 20.7 µM | [8] > 50 µM | [9] 12.5 µM | [10] 16 µM | [11] 26.4 µM | [12] 19.5 µM | [13] > 50 µM | [14] 21.8 µM | [15] 23.4 µM | [16] 9.77 µM | [18] 16.5 µM | [19] > 50 µM

CC(C(=O)OCc1ccccc1)(c1ccco1)N1C(=O)OC(c2ccccc2)C1c1ccccc1 (stereo not given)
inactive: [1] 6.01 µM | [2] > 100 µM | [3] > 100 µM | [20] 4.37 µM | [4] > 100 µM | [5] > 100 µM | [6] > 100 µM | [7] > 100 µM | [8] > 100 µM | [9] > 100 µM | [10] > 100 µM | [11] > 100 µM | [12] > 100 µM | [13] > 100 µM | [14] > 100 µM | [15] > 100 µM | [16] > 100 µM | [17] > 100 µM | [18] > 30.1 µM | [19] 97.1 µM

COc1ccc2cc(C(=O)CCC(=O)O)ccc2c1
inactive: [1] > 100 µM | [2] > 100 µM | [3] > 100 µM | [20] > 100 µM | [4] > 100 µM | [5] > 100 µM | [6] > 100 µM | [7] > 100 µM | [8] > 100 µM | [9] > 100 µM | [10] > 100 µM | [11] > 100 µM | [12] > 100 µM | [13] > 100 µM | [14] > 100 µM | [15] > 100 µM | [16] > 100 µM | [17] > 100 µM | [18] > 100 µM | [19] > 100 µM

COC(=O)/C=C1\CCC(C)(C(=O)NS(=O)(=O)c2ccc(C)cc2)C1(C)C (stereo not given)
inactive: [1] > 100 µM | [2] > 100 µM | [20] > 100 µM | [4] > 100 µM | [5] > 100 µM | [6] > 100 µM | [7] > 100 µM | [8] > 100 µM | [9] > 100 µM | [10] > 100 µM | [11] > 100 µM | [12] > 100 µM | [13] > 100 µM | [14] > 100 µM | [15] > 100 µM | [16] > 100 µM | [18] > 100 µM | [19] > 100 µM

CCOC(=O)c1cc(-c2ccc(OC)cc2)c([N+](=O)[O-])[nH]1
inactive: [1] > 10 µM | [2] > 10 µM | [3] > 10 µM | [4] > 10 µM | [5] > 10 µM | [6] > 10 µM | [7] > 10 µM | [8] > 10 µM | [9] > 10 µM | [10] > 10 µM | [11] > 10 µM | [12] 9.82 µM | [13] > 10 µM | [14] > 10 µM | [15] > 10 µM | [16] > 10 µM | [17] > 10 µM | [18] 7.67 µM | [19] 7.78 µM
